Data published in PMC8694143 (Microbiology Spectrum, 2021).
Residues, ends and D or L forms follow the SMILES beside them. No end group written: not given here. *: point of attachment. For = O=C*

What was measured:
MRSA ATCC BAA-2094 = assay: MIC determination in broth; format: cell-based, Staphylococcus aureus; settings: cation-adjusted MH broth, 37°C, 16 h
How it was run: (§1)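 Broth microdilution in cation-adjusted Mueller-Hinton broth, inoculum ~10^5 CFU/mL (OD 5 × 10^−4), with peptides in 2-fold dilution series. Plates incubated without shaking at 37°C for Staphylococcus strains.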

MRSA ATCC BAA-41 = assay: MIC determination in broth; format: cell-based, Staphylococcus aureus; settings: cation-adjusted MH broth, 37°C, 16 h
How it was run: as §1

S. aureus ATCC 29213 = assay: MIC determination in broth; format: cell-based, Staphylococcus aureus; settings: cation-adjusted MH broth, 37°C, 16 h
How it was run: as §1

MRSA ATCC BAA-44 = assay: MIC determination in broth; format: cell-based, Staphylococcus aureus; settings: cation-adjusted MH broth, 37°C, 16 h
How it was run: as §1

MRSA ATCC 33592 = assay: MIC determination in broth; format: cell-based, Staphylococcus aureus; settings: cation-adjusted MH broth, 37°C, 16 h
How it was run: as §1

MRSA ATCC BAA-2313 = assay: MIC determination in broth; format: cell-based, Staphylococcus aureus; settings: cation-adjusted MH broth, 37°C, 16 h
How it was run: as §1

MRSA ATCC BAA-1683 = assay: MIC determination in broth; format: cell-based, Staphylococcus aureus; settings: cation-adjusted MH broth, 37°C, 16 h
How it was run: as §1

MRSA ATCC BAA-42 = assay: MIC determination in broth; format: cell-based, Staphylococcus aureus; settings: cation-adjusted MH broth, 37°C, 16 h
How it was run: as §1

[1] = Circular dichroism spectroscopy; format: physicochemical; settings: for α-Helical content (%): CD, 50% TFE (vol/vol), peptide 0.2 mg/mL, room temperature
Description: Peptides were dissolved in ultrapure water or 50% TFE (vol/vol) at a concentration of 0.2 mg/mL for spectroscopy. Spectra of samples in a 1 mm pathlength quartz cuvette were recorded from 180 to 260 nm at 0.5 nm steps using an Applied Photophysics Chirascan Plus CD spectrophotometer operating at room temperature.

SspA protease = SspA protease (Staphylococcus aureus, UniProt P0C1U8); assay: SspA protease treatment with HPLC/MS analysis; format: in vitro ADME; settings: peptide 45 μL at 10 mg/mL + SspA 5 μL at 2 mg/mL, 100 mM HEPES pH 7.8, 37°C, 5 h
Description: SspA protease was resuspended at 2 mg/mL in 100 mM HEPES (pH 7.8). Peptide samples (45 μL at 10 mg/mL) were mixed with SspA (5 μL at 2 mg/mL) and incubated at 37°C for a total of 5 h. The antimicrobial activities of the reaction mixtures were assayed by spotting 5 μL (∼45 μg) of each on either M. luteus or S. aureus test organisms as described above. Additional samples were flash frozen in liquid nitrogen and stored at −80°C prior to high-pressure liquid chromatography-mass spectrometry (HPLC/MS) analysis.
HPLC/MS analyses were conducted to assess the proteolytic cleavage of STIPs by the SspA protease and catalogue peptides in the reaction mixtures. An Agilent Infinity II 1260 HPLC outfitted with a Phenomenex Lune C5 column (4.6 by 150 mm, 5 μm) was used to separate the peptide fragments using a binary solvent system consisting of solvent A (water, 0.05% formic acid) and solvent B (acetonitrile, 0.05% formic acid) operating at 0.7 mL/min. A 5-μL volume (∼4.5 μg) of each sample was injected at 10% solvent B, followed by a two-step gradient elution from 10% to 50% solvent B in 30 min, then 50% to 100% B in 10 min. The HPLC was coupled to an Advion CMS(L) single quadrupole mass detector through an electrospray ionization source, and ions were detected between 100 and 2,000 m/z. Low temperature and fragmentation settings were used: capillary temperature 135°C, capillary voltage 120 V, source voltage offset 20 V, source gas temperature 135°C, and electrospray ionization (ESI) voltage 3,500 V.

sheep red blood cells = assay: Hemolytic activity assay; format: cell-based; settings: peptides at 100 μg/mL, 1 h, relative to the δ-toxin and other STIPs
Description: Thirty-five percent defibrinated sheep’s blood (vol/vol) was centrifuged for 5 min at 4,000 rpm to harvest red blood cells. The cells were washed three times with PBS and harvested by centrifugation prior to dilution to 15% (vol/vol) in PBS in order to evaluate peptide-mediated hemolysis. The assay was performed in 96-well microtiter plates using peptides at 100 μg/mL in a 200-μL volume. […] was used as a negative control and Triton X-100 (0.1% vol/vol) was used as a positive control for complete lysis. After 1 h of incubation, the 96-well microtiter plates were centrifuged at 4,500 rpm for 10 min and a 150 μL aliquot of the supernatant from each sample was carefully transferred to a new 96-well plate. The absorbance of the supernatant was then measured at 540 nm using a Varioskan Lux plate reader (Thermo Scientific). The hemolytic activity is reported relative to complete lysis (%) obtained using Triton X-100. Experiments were performed in triplicate, and statistical differences in hemolysis were measured using an unpaired two-tailed Student’s t test to compare the STIPs and deformylated δ-toxin to the formylated δ-toxin.

S. aureus = assay: MIC of STIP3-1 alanine variants in liquid broth; format: cell-based, Staphylococcus aureus; settings: Table S4; maximum concentration tested 200 μg/mL; strain not given
Description: The MICs were measured for bioactive peptides identified from the initial screen. […] […] Plates were incubated without shaking at 30 or 37°C depending on the organism.

HeLa (ATCC CCL-2) cells = assay: HeLa cytotoxicity, alamarBlue; format: cell-based, human; settings: monolayers, 3.13 to 200 μg/mL, 24 h, alamarBlue fluorescence; estimated
Description: Cytotoxicity was measured using the 3D EpiDerm skin tissues and HeLa (ATCC CCL-2) cells using a fluorescent reporter of cell viability, alamarBlue (ThermoFisher Scientific). 3D EpiDerm skin tissues (MatTek EPI-200-AFAB) were transferred to a 12-well plate containing 600 μL of AFAB-assay medium supplemented with 10% vol/vol alamarBlue. […] HeLa cells were seeded in a 96-well plate at 2 × 10^4 cells/per well and incubated overnight at 37°C in a humidified 5% CO2 environment to prepare wells at ∼50% confluence for treatments after spent Dulbecco’s modified Eagle’s medium (DMEM) was removed and cells were washed with PBS. Assays were then performed using phenol red-free DMEM supplement with 9% vol/vol alamarBlue and peptide concentrations varying from 3.13 to 200 μg/mL. After a 24 h incubation period, alamarBlue fluorescence emission was measured at 590 nm upon excitation at 560 nm using Varioskan Lux plate reader (Thermo Scientific). Fluorescence intensities of treated cultures were normalized to measurement made for untreated control samples. Experimental data sets were fit to nonlinear dose-response curves to determine IC50 values using Origin 2019.

M. luteus ATCC 4698 = assay: MIC determination in broth; format: cell-based, Micrococcus luteus; settings: cation-adjusted MH broth, ~10^5 CFU/mL, 30°C, 48 h
Description: M. luteus ATCC 4698, S. aureus ATCC 29213, a panel of 7 MRSA (ATCC MP-2) strains, which includes ATCC BAA-41, BAA-42, BAA-44, BAA-1683, BAA-2094, BAA-2313, and 33592, and a series of additional bacterial isolates from human and veterinary cases were used in this study (Table S6). Bacterial strains were routinely grown in lysogeny broth (LB: 10 g/L tryptone, 5 g/L yeast extract, 10 g/L NaCl) at 30°C (M. luteus) or 37°C (Staphylococcus spp.) prior to use in specific experiments described below.
The MICs were measured for bioactive peptides identified from the initial screen. Cation-adjusted Mueller-Hinton (MH) broth was used as the growth medium for MIC determination experiments. Bacterial cultures were diluted to an OD of 5 × 10^−4 (∼10^5 CFU/mL) in 200 μL MH broth mixed with peptides in a 2-fold dilution series arrayed in 96-well plates. Plates were incubated without shaking at 30 or 37°C depending on the organism.

[2] = δ-toxins, highest conc. tested 200 μg/mL
[3] = STIP3 variants, highest conc. tested 100 μg/mL, ~10^5 CFU/mL, 2-fold dilution series

Sequence of SspA protease (P0C1U8 69-336): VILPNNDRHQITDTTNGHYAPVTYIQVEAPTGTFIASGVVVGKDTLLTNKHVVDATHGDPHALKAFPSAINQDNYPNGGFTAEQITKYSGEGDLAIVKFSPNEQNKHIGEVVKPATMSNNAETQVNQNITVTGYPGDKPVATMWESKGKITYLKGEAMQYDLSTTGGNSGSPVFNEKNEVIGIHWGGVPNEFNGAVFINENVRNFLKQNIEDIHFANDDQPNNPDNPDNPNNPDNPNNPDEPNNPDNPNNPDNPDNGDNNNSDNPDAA

| Molecule | MIC, S. aureus ATCC BAA 2094 (SCCmec V) (MRSA ATCC BAA-2094; [2]) | MIC, S. aureus ATCC BAA 41 (SCCmec II) (MRSA ATCC BAA-41; [2]) | MIC, S. aureus ATCC 29213 (S. aureus ATCC 29213; [2]) | MIC, S. aureus ATCC BAA 44 (SCCmec I) (MRSA ATCC BAA-44; [2]) | MIC, S. aureus ATCC 33592 (SCCmec III) (MRSA ATCC 33592; [2]) | MIC, S. aureus ATCC BAA 2313 (SCCmec XI) (MRSA ATCC BAA-2313; [2]) | MIC, S. aureus ATCC BAA 1683 (SCCmec IV) (MRSA ATCC BAA-1683; [2]) | MIC, S. aureus ATCC BAA 42 (SCCmec VI) (MRSA ATCC BAA-42; [2]) | α-Helical content (%) [1] [%] | Susceptibility to SspA cleavage (SspA protease) | further results |
| --- | --- | --- | --- | --- | --- | --- | --- | --- | --- | --- | --- |
| CC[C@H](C)[C@H](NC(=O)[C@H](Cc1c[nH]c2ccccc12)NC(=O)[C@H](CCCCN)NC(=O)[C@@H](NC(=O)[C@H](CC(C)C)NC(=O)CNC(=O)CNC(=O)[C@@H](NC(=O)[C@@H](NC(=O)[C@H](CCC(=O)O)NC(=O)[C@@H](NC(=O)[C@@H](NC(=O)[C@H](CC(=O)O)NC(=O)[C@H](CCCCN)NC(=O)[C@@H](NC(=O)[C@H](CCSC)NC=O)[C@@H](C)O)[C@@H](C)CC)C(C)C)[C@@H](C)O)C(C)C)C(C)C)C(=O)N[C@@H](CC(C)C)C(=O)N[C@@H](CC(=O)O)C(=O)N[C@H](C(=O)N[C@H](C(=O)N[C@@H](CCCCN)C(=O)N[C@@H](CCCCN)C(=O)N[C@@H](Cc1ccccc1)C(=O)N[C@@H](C)C(=O)O)C(C)C)[C@@H](C)O [δ-toxin] (For-MTKDIVETVGGLVKWILDTVKKFA-OH; C-terminus assumed) | > (no inhibition was observed at 100 μg/mL for the STIP3 variants or 200 μg/mL for the δ-toxins) | > (no inhibition was observed at 100 μg/mL for the STIP3 variants or 200 μg/mL for the δ-toxins) | > (no inhibition was observed at 100 μg/mL for the STIP3 variants or 200 μg/mL for the δ-toxins) | > (no inhibition was observed at 100 μg/mL for the STIP3 variants or 200 μg/mL for the δ-toxins) | > (no inhibition was observed at 100 μg/mL for the STIP3 variants or 200 μg/mL for the δ-toxins) | > (no inhibition was observed at 100 μg/mL for the STIP3 variants or 200 μg/mL for the δ-toxins) | > (no inhibition was observed at 100 μg/mL for the STIP3 variants or 200 μg/mL for the δ-toxins) | > (no inhibition was observed at 100 μg/mL for the STIP3 variants or 200 μg/mL for the δ-toxins) | 88 | no SspA cleavage was observed | Secondary structure by CD ([1]; water and 50% trifluoroethanol (vol/vol), 0.2 mg/mL): α-helical in both solvents |
| MTKDIVETVGGLVKWILDTVKKFA [δ-toxin (df), deformylated full-length S. auricularis δ-toxin, reference compound] | > (no inhibition was observed at 100 μg/mL for the STIP3 variants or 200 μg/mL for the δ-toxins) | > (no inhibition was observed at 100 μg/mL for the STIP3 variants or 200 μg/mL for the δ-toxins) | > (no inhibition was observed at 100 μg/mL for the STIP3 variants or 200 μg/mL for the δ-toxins) | > (no inhibition was observed at 100 μg/mL for the STIP3 variants or 200 μg/mL for the δ-toxins) | > (no inhibition was observed at 100 μg/mL for the STIP3 variants or 200 μg/mL for the δ-toxins) | > (no inhibition was observed at 100 μg/mL for the STIP3 variants or 200 μg/mL for the δ-toxins) | > (no inhibition was observed at 100 μg/mL for the STIP3 variants or 200 μg/mL for the δ-toxins) | > (no inhibition was observed at 100 μg/mL for the STIP3 variants or 200 μg/mL for the δ-toxins) | 87 | susceptible to SspA cleavage |  |
| TVGGLVKWILATVKKFA-NH2 [STIP3-28, rationally designed STIP3-1 variant, C-terminal amide] |  |  |  |  |  |  |  |  |  |  | MIC, S. aureus ATCC BAA 2094 (SCCmec V) (MRSA ATCC BAA-2094; [3]): 6.25 µg/mL; MIC, S. aureus ATCC BAA 41 (SCCmec II) (MRSA ATCC BAA-41; [3]): 12.5 µg/mL; MIC, S. aureus ATCC 29213 (S. aureus ATCC 29213; [3]): 25 µg/mL; MIC, S. aureus ATCC BAA 44 (SCCmec I) (MRSA ATCC BAA-44; [3]): 12.5 µg/mL; MIC, S. aureus ATCC 33592 (SCCmec III) (MRSA ATCC 33592; Table S5, STIP3 variants, highest conc. tested 100 μg/mL, ~10^5 CFU/mL, 2-fold dilution series): 6.25 µg/mL; MIC, S. aureus ATCC BAA 2313 (SCCmec XI) (MRSA ATCC BAA-2313; [3]): 12.5 µg/mL; MIC, S. aureus ATCC BAA 1683 (SCCmec IV) (MRSA ATCC BAA-1683; [3]): 12.5 µg/mL; MIC, S. aureus ATCC BAA 42 (SCCmec VI) (MRSA ATCC BAA-42; [3]): 12.5 µg/mL; Change of hemolytic activity (sheep red blood cells): increase in hemolysis |
| TVGGLVKWILDTVKKFA [STIP3-1] |  |  |  |  |  |  |  |  |  | further proteolysis can occur | MIC (μg/mL) for MRSA ATCC 33592 (MRSA ATCC 33592; Table 1 and text, ~10^5 CFU/mL): 100 µg/mL; MIC, S. aureus (alanine substituted STIP3-1, liquid broth) (S. aureus): 100 µg/mL; IC50, HeLa cell survival (HeLa (ATCC CCL-2) cells): 200 ± 30 µg/mL; MIC, M. luteus (M. luteus ATCC 4698): 12.5 µg/mL |
